Our source for the IC50 values is patent US9604988B2, “Agent for treating or inhibiting recurrence of acute myeloid leukemia” (RIKEN, priority 2012, dated 2017).

The target in one experiment is HCK (Homo sapiens, UniProt P08631). Nature of the experiment: HCK kinase inhibition. The class given is biochemical.
In another experiment the target is T1, FLT3-ITD (Homo sapiens, UniProt P36888, ITD).
T1 sequence (P36888 27-993): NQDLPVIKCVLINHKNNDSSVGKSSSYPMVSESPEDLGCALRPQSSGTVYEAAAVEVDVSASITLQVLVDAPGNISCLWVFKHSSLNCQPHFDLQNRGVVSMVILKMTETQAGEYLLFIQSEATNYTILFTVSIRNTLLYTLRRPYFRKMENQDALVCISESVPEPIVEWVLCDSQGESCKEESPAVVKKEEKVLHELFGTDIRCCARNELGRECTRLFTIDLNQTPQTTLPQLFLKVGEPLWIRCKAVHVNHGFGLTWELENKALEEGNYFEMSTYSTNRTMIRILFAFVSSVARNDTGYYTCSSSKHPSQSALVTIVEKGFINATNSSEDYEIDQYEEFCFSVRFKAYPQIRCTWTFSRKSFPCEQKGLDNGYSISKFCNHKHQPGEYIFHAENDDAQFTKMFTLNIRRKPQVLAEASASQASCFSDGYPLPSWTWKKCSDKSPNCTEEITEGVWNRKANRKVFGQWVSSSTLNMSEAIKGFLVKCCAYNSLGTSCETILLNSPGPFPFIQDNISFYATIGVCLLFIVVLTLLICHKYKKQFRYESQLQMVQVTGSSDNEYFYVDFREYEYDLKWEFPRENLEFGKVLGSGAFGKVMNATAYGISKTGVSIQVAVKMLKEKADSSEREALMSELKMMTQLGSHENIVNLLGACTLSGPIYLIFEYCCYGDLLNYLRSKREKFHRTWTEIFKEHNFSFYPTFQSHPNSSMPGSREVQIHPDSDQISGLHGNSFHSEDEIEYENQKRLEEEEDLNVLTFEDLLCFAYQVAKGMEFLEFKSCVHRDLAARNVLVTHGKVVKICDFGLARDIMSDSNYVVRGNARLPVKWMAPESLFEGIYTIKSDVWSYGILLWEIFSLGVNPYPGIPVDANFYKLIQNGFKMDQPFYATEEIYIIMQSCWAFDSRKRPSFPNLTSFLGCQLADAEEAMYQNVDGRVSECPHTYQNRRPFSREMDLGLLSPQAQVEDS
Nature of the experiment: FLT3-ITD kinase inhibition. The class given is biochemical.

The structures appear in SMILES notation. pIC50: −log10 of the molar value. Structures can show the parent of a compound that is named as a salt.

Sequence of HCK (P08631 whole entry): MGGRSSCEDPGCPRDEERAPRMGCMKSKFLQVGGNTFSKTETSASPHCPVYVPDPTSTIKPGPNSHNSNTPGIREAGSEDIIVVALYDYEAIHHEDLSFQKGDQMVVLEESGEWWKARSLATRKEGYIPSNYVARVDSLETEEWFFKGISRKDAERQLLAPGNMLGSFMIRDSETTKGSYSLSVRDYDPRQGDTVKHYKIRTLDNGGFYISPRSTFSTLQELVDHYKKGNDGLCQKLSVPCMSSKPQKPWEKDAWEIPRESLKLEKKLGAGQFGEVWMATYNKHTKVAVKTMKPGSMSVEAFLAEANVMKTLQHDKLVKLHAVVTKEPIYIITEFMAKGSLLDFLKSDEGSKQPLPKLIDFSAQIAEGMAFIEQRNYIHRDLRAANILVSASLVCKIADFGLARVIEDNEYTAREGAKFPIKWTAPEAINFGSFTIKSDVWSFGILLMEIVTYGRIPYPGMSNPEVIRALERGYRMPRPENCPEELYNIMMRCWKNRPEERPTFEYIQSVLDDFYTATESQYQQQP

In general, pIC50 refers to −log10 of the IC50, conventionally taken in molar units. Low readings indicate a high IC50, high ones a low IC50. Turning to `Nc1ncnc2c1c(-c1ccc(Oc3ccccc3)cc1)cn2[C@H]1CC[C@H](NCC(=O)O)CC1` [Example 3, 2-(((trans)-4-(4-Amino-5-(4-phenoxyphenyl)-7H-pyrrolo[2,3-d]pyrimidin-7-yl)cyclohexyl)amino)acetic acid.trihydrochloride], the negative logarithm of the IC50 (pIC50) is 8.38 against HCK and 7.62 on FLT3-ITD.

The compound `Nc1ncnc2c1c(-c1ccc(Oc3ccccc3)cc1)cn2[C@H]1CC[C@@H](NCc2ccncc2)CC1` [Example 5, 5-(4-phenoxyphenyl)-7-((cis)-4-((pyridin-4-ylmethyl)amino)cyclohexyl)-7H-pyrrolo[2,3-d]pyrimidin-4-amine] showed a pIC50 on FLT3-ITD of 8.18.

Regarding `Nc1ncnc2c1c(-c1ccc(Oc3ccccc3)cc1)cn2[C@H]1CC[C@@H](NCC(=O)O)CC1` [Example 9, 2-(((cis)-4-(4-Amino-5-(4-phenoxyphenyl)-7H-pyrrolo[2,3-d]pyrimidin-7-yl)cyclohexyl)amino)acetic acid.trihydrochloride], the negative logarithm of the IC50 (pIC50) against HCK was 7.80; against FLT3-ITD, 7.64.

The compound `NC(=O)CN[C@H]1CC[C@@H](n2cc(-c3ccc(Oc4ccccc4)cc3)c3c(N)ncnc32)CC1` [Example 10, 2-(((cis)-4-(4-Amino-5-(4-phenoxyphenyl)-7H-pyrrolo[2,3-d]pyrimidin-7-yl)cyclohexyl)amino)acetamide] showed a negative-log IC50 (pIC50) against FLT3-ITD of 7.64.

`NC(=O)CN[C@H]1CC[C@H](n2cc(-c3ccc(Oc4ccccc4)cc3)c3c(N)ncnc32)CC1` [Example 11, 2-(((trans)-4-(4-Amino-5-(4-phenoxyphenyl)-7H-pyrrolo[2,3-d]pyrimidin-7-yl)cyclohexyl)amino)acetamide] had a negative-log IC50 (pIC50) against FLT3-ITD of 7.64.

As to `Nc1ncnc2c1c(-c1ccc(Oc3ccccc3)cc1)cn2[C@H]1CC[C@@H](NC(=O)c2ccncc2)CC1` [Example 12, N-((cis)-4-(4-5-(4-Phenoxyphenyl)-7H-pyrrolo[2,3-d]pyrimidin-7-yl)cyclohexyl)isonicotinamide], the pIC50 against HCK is 8.40; against FLT3-ITD, 7.36.

In the case of `CC(C)(C)N1CCN([C@H]2CC[C@H](n3cc(-c4ccc(Oc5ccccc5)cc4)c4c(N)ncnc43)CC2)CC1` [Example 13, 7-((trans)-4-(4-(tert-Butyl)piperazin-1-yl)cyclohexyl)-5-(4-phenoxyphenyl)-7H-pyrrolo[2,3-d]pyrimidin-4-amine], the negative logarithm of the IC50 (pIC50) was 8.10 on HCK and 7.77 against FLT3-ITD.

As for `COc1cc(-c2nn([C@H]3CC[C@H](N4CCN(C)CC4)CC3)c3ncnc(N)c23)ccc1NC(=O)c1cc2ccccc2n1C` [Example 14, N-(4-(4-amino-1-((trans)-4-(4-methylpiperazin-1-yl)cyclohexyl)-1H-pyrazolo[3,4-d]pyrimidin-3-yl)-2-methoxyphenyl)-1-methyl-1H-indole-2-carboxamide], the negative-log IC50 (pIC50) is 9.11 at HCK and 5.56 at FLT3-ITD.

On to `COc1cc(-c2cn([C@H]3CC[C@@H](N4CCn5c(C)nnc5C4)CC3)c3ncnc(N)c23)ccc1NC(=O)c1cc2ccccc2n1C` [Example 16, N-(4-(4-amino-7-((cis)-4-(3-methyl-5,6-dihydro[1,2,4]triazolo[4,3-a]pyrazin-7(8H)-yl)cyclohexyl)-7H-pyrrolo[2,3-d]pyrimidin-5-yl)-2-methoxyphenyl)-1-methyl-1H-indole-2-carboxamidamide], for which, on HCK, the pIC50 was 8.31.

Turning to `CN1CCN([C@H]2CC[C@H](n3cc(-c4ccc(NC(=O)c5cc6ccccc6n5C)cc4)c4c(N)ncnc43)CC2)CC1` [Example 17, N-(4-(4-amino-7-((trans)-4-(4-methylpiperazin-1-yl)cyclohexyl)-7H-pyrrolo[2,3-d]pyrimidin-5-yl)phenyl)-1-methyl-1H-indole-2-carboxamide], the negative-log IC50 (pIC50) at HCK is 8.59; at FLT3-ITD it was 6.59.

Regarding `Nc1ncnc2c1c(-c1ccc(Oc3ccccc3)cc1)cn2[C@H]1CC[C@H](NC(=O)c2ccccn2)CC1` [Example 18, N-((trans)-4-(4-amino-5-(4-phenoxyphenyl)-7H-pyrrolo[2,3-d]pyrimidin-7-yl)cyclohexyl)picolinamide], the negative logarithm of the IC50 (pIC50) on HCK is 8.34; against FLT3-ITD, 6.37.

Regarding `Nc1ncnc2c1c(-c1ccc(Oc3ccccc3)cc1)cn2[C@H]1CC[C@H](NC(=O)c2cccnc2)CC1` [Example 19, N-((trans)-4-(4-amino-5-(4-phenoxyphenyl)-7H-pyrrolo[2,3-d]pyrimidin-7-yl)cyclohexyl)nicotinamide], the pIC50 against HCK is 7.93; on FLT3-ITD, 6.97.

Consider `Nc1ncnc2c1c(-c1ccc(Oc3ccccc3)cc1)nn2[C@H]1CC[C@H](NC(=O)c2ccncc2)CC1` [Example 20, N-((trans)-4-(4-amino-3-(4-phenoxyphenyl)-1H-pyrazolo[3,4-d]pyrimidin-1-yl)cyclohexyl)isonicotinamide], for which the figures for the pIC50 on HCK and at FLT3-ITD were 8.10 and 6.38, respectively.

With `Nc1ncnc2c1c(-c1ccc(Oc3ccccc3)cc1)nn2[C@H]1CC[C@H](NC(=O)c2ccccn2)CC1` [Example 23, N-((trans)-4-(4-amino-3-(4-phenoxyphenyl)-1H-pyrazolo[3,4-d]pyrimidin-1-yl)cyclohexyl)picolinamide], the negative-log IC50 (pIC50) was 7.92 at HCK and 6.26 against FLT3-ITD.

Regarding `COc1cc(-c2cn([C@H]3CC[C@@H](N4CCN(C)CC4)CC3)c3ncnc(N)c23)ccc1NC(=O)c1cc2ccccc2n1C` [Example 26, N-(4-(4-amino-7-((cis)-4-(4-methylpiperazin-1-yl)cyclohexyl)-7H-pyrrolo[2,3-d]pyrimidin-5-yl)-2-methoxyphenyl)-1-methyl-1H-indole-2-carboxamide], the pIC50 was 8.14 on HCK and 5.88 on FLT3-ITD.

As for `CN1CCN([C@H]2CC[C@H](n3nc(-c4ccc(NC(=O)c5cc6ccccc6n5C)cc4)c4c(N)ncnc43)CC2)CC1` [Example 28, N-(4-(4-amino-1-((trans)-4-(4-methylpiperazin-1-yl)cyclohexyl)-1H-pyrazolo[3,4-d]pyrimidin-3-yl)phenyl)-1-methyl-1H-indole-2-carboxamide], the pIC50 was 8.80 on HCK and 5.97 against FLT3-ITD.

Compound `COc1cc(-c2cn([C@H]3CC[C@H](N4CCn5c(nnc5C(F)(F)F)C4)CC3)c3ncnc(N)c23)ccc1NC(=O)c1cc2ccccc2n1C` [Example 30, N-(4-(4-amino-7-((trans)-4-(3-(trifluoromethyl)-5,6-dihydro[1,2,4]triazolo[4,3-a]pyrazin-7(8H)-yl)cyclohexyl)-7H-pyrrolo[2,3-d]pyrimidin-5-yl)-2-methoxyphenyl)-1-methyl-1H-indole-2-carboxamide] had a negative-log IC50 (pIC50) against HCK of 8.11.

In the case of `CCc1nnc2n1CCN([C@H]1CC[C@@H](n3cc(-c4ccc(NC(=O)c5cc6ccccc6n5C)c(OC)c4)c4c(N)ncnc43)CC1)C2` [Example 31, N-(4-(4-amino-7-((cis)-4-(3-ethyl-5,6-dihydro[1,2,4]triazolo[4,3-a]pyrazin-7(8H)-yl)cyclohexyl)-7H-pyrrolo[2,3-d]pyrimidin-5-yl)-2-methoxyphenyl)-1-methyl-1H-indole-2-carboxamide], the pIC50 against HCK is 7.96.

Compound `CCc1nnc2n1CCN([C@H]1CC[C@H](n3cc(-c4ccc(NC(=O)c5cc6ccccc6n5C)c(OC)c4)c4c(N)ncnc43)CC1)C2` [Example 32, N-(4-(4-amino-7-((trans)-4-(3-ethyl-5,6-dihydro[1,2,4]triazolo[4,3-a]pyrazin-7(8H)-yl)cyclohexyl)-7H-pyrrolo[2,3-d]pyrimidin-5-yl)-2-methoxyphenyl)-1-methyl-1H-indole-2-carboxamide] gave a negative logarithm of the IC50 (pIC50) against HCK of 7.85.

On to `COc1cc(-c2cn([C@H]3CC[C@@H](N4CCn5c(nnc5C(C)C)C4)CC3)c3ncnc(N)c23)ccc1NC(=O)c1cc2ccccc2n1C` [Example 33, N-(4-(4-amino-7-((cis)-4-(3-isopropyl-5,6-dihydro[1,2,4]triazolo[4,3-a]pyrazin-7(8H)-yl)cyclohexyl)-7H-pyrrolo[2,3-d]pyrimidin-5-yl)-2-methoxyphenyl)-1-methyl-1H-indole-2-carboxamide], for which the negative logarithm of the IC50 (pIC50) on HCK is 8.11.

Turning to `COc1cc(-c2cn([C@H]3CC[C@H](N4CCn5c(nnc5C(C)C)C4)CC3)c3ncnc(N)c23)ccc1NC(=O)c1cc2ccccc2n1C` [Example 34, N-(4-(4-amino-7-((trans)-4-(3-isopropyl-5,6-dihydro[1,2,4]triazolo[4,3-a]pyrazin-7(8H)-yl)cyclohexyl)-7H-pyrrolo[2,3-d]pyrimidin-5-yl)-2-methoxyphenyl)-1-methyl-1H-indole-2-carboxamide], the pIC50 against HCK is 8.11.

Regarding `Nc1ncnc2c1c(-c1ccc(Oc3ccccc3)cc1)cn2[C@H]1CC[C@H](N[C@H]2CCNC2=O)CC1` [Example 54, (S)-3-(((trans)-4-(4-amino-5-(4-phenoxyphenyl)-7H-pyrrolo[2,3-d]pyrimidin-7-yl)cyclohexyl)amino)pyrrolidin-2-one], the negative logarithm of the IC50 (pIC50) on FLT3-ITD was 7.60.
